In US10351598B2, “Peptide with anti-obesity and anti-diabetic efficacy and use thereof” (CAREGEN CO., LTD., priority 2016, dated 2019):
Several values for one entry are separate records, joined by “and”; a condition that tells them apart may be missing. Equal entries are not always repeated.

What was measured:
3T3-L1 cells = experiment: Oil red O staining (lipid accumulation inhibition); assay type: cell-based; conditions: day 9 of differentiation induction
Protocol: In order to measure the lipid accumulation inhibitory effect by the peptides of the present invention, 3T3-L1 cells were seeded in 24-well plate at 2×10^4 cells/well, followed by culture, and then the medium was exchanged with a differentiation medium containing 10 ug/ml insulin, 0.1 uM dexamethasone, and 0.5 uM IBMX, followed by treatment with the peptides having different concentrations.
Thereafter, the medium was exchanged into a medium containing 10 ug/ml insulin every two days, and on day 9 of differentiation induction, an oil-red-red O staining assay was conducted.
The cells were washed with PBS, immobilized by the treatment with 4% para-form aldehyde for 10 minutes, washed with distilled water, and then cultured in 60% isopropanol for 5-10 minutes. The immobilized cells were stained with an oil red solution [1% Oil Red in isopropanol was diluted in dH2O in ratio of 6:4 (vol/vol)] for 30 minutes, and then again washed with PBS. The stained cells were observed by an optical microscope, followed by washing with distilled water, and 1 ml of 100% isopropanol was added thereto, followed by stirring at 4° C. The next day, quantification was conducted at 510 nm.

mouse adipose tissue [1] = experiment: Glycerol assay (lipolysis induction); assay type: cell-based; conditions: compared with control group NC; for secretion of glycerol: mouse adipose tissue, cultured 48-72 hours with peptide
From the text: Adipocytes store extra energy in the form of triglycerides in lipid droplets, and when energy is needed, the triglycerides are broken down into fatty acids and glycerols by enzymes, such as adipose triglyceride lipase, HSL, and monoglyceride lipase, to produce energy, or the triglycerides are used in cell signaling or lipid synthesis. The measurement of free glycerol release is for evaluating the lytic effect of the glycerides accumulated in fact cells.
In order to measure the lipolytic effect by the peptides of the present invention, the mouse adipose tissue was taken and cultured in 100-mm dish (DMEM) for one day. Thereafter, the adipose tissue was cut into equal weight, transferred onto 24-well plate, treated with the peptides, and cultured for 48-72 hours. Each 100 ul of the medium was collected according to the treatment period, and subjected to glycerol assay.

CGI-58 = CGI-58 RT-PCR; assay type: cell-based; conditions: intracellular
Protocol: (§1) Total RNA was extracted using Qiagen RNeasy kit. For synthesis of single-stranded DNA from RNA, […] of RNA, […] of random hexamer, and DEPC-treated water were added, followed by reaction for 5 minutes at 65° C. 5× first strand buffer, 0.1 M DTT, 10 mM of dNTP, and reverse transcriptase were added to reach a total volume of […], followed by reaction at 42° C. for 1 hour. After heating at 95° C. for 5 minutes again, 10 ml of distilled water was added to make a final volume, […], of cDNA.
(§2) PCR was conducted by mixing 3 ml of cDNA, 10 pmole of CGI 58 gene-specific primer, 10× Tag buffer, 10 mM dNTP, and i-Tag DNA synthetase. PCR conditions were: 94° C. for 30 seconds, 55-56° C. for 30 seconds, and 72° C. for 30 seconds. Cycle number genes were analyzed in the conditions in which the PCR results could be exponentially amplified. 5 ml of PCR product was obtained, electrophoresed on 1% agarose gel, and stained with ethidium bromide.

mouse adipose tissue [2] = experiment: Histological analysis, H&E staining (lipolysis induction); assay type: cell-based; conditions: as the concentration of the peptide increased
Protocol: The mouse adipose tissue was taken and cultured in 100-mm dish (DMEM) for one day. Thereafter, the adipose tissue was cut into equal weight, transferred onto 24-well plate, treated with the peptides, and cultured for 48-72 hours. Each tissue slice was subjected to H&E staining. The photo files obtained from microscopic photographing were divided into compartments through Image J, and analyzed using a program that can compare the sizes of each compartment. Through this, the area of the total number of cells can be obtained, and the average area obtained by dividing the area by the total number of cells can also be obtained. The results may be expressed differently depending on the degree of staining. However, correction can be made by adjusting the threshold value in the beginning, and the results were obtained after the cells with relatively small areas from the comparison with the original file were removed.

pHSL = experiment: Immunohistochemical staining with anti-pHSL antibody (lipolysis induction); assay type: cell-based; conditions: mouse adipose tissue, 48-72 hours
From the text: In order to investigate a mechanism by which the peptides of the present invention stimulate the lysis of triglycerides to suppress the lipid accumulation in adipocytes, the effect of the peptides of the present invention on HSL gene expression was examined. HSL enzyme is known as a lipolytic enzyme that breaks down triglycerides into free fatty acids and glycerols when the HSL enzyme breaks down lipids in the adipose tissue.
The mouse adipose tissue was taken and cultured in 100-mm dish (DMEM) for one day. Thereafter, the adipose tissue was cut into equal weight, transferred onto 24-well plate, treated with the peptides, and cultured for 48-72 hours. Each tissue slice was subjected to immunohistochemical staining using anti-pHSL antibody, and photographed by a fluorescent microscope.

[3] = test system: C57BL/6J mice fed with a high-fat diet; experiment: Anti-diabetic efficacy evaluation (in vivo), blood glucose after oral glucose; parameters: blood glucose, individual animal / blood glucose, Mean: unit not given here; conditions: for blood glucose, Mean / blood glucose, individual animal: 60% fat diet mice; for blood glucose increase by glucose: high-fat diet mice, compared with the NC group
From the text: 6-week-old C57BL/6J mice as experimental animals were purchased from Central Lab. Animal Inc. (Seoul, Korea), and then were used for experiments after acclimatization with a normal diet for 1 week. A high-fat feed was used from Research Diets, inc. (#product D12492).
The experimental animals were divided into a total of four groups, and three mice for each group were raised for 12 weeks.
In addition, the experimental animals were divided into a total of […], and three mice for each group were raised for 12 weeks.
After the pre-treatment with a peptide for 30 minutes, glucose (60 mg/300 ul distilled water) were orally administered, and then the blood glucose lowering effect over time was examined. The results are shown in FIGS. 6a to 6b and tables 5 and 6.

adiponectin = experiment: Adiponectin RT-PCR in insulin resistance conditions (TNF-α); assay type: cell-based; conditions: reduced by TNF-α treatment, peptide treatment 16 hours
Protocol: as §1, §2
(§3) After the insulin resistance conditions were configured by TNF-α treatment, the peptide treatment was conducted for 16 hours, followed by collection and then the resultant product was collected and the changes of respective factors were examined by RT-PCR. RT-PCR conditions are the same as in example 3.

GLUT4 = GLUT4 RT-PCR in insulin resistance conditions (TNF-α); assay type: cell-based; conditions: reduced by TNF-α treatment, peptide treatment 16 hours
Protocol: as §1, §2, §3

IRS-1 = IRS-1 RT-PCR in insulin resistance conditions (TNF-α); assay type: cell-based; conditions: reduced by TNF-α treatment, peptide treatment 16 hours
Protocol: as §1, §2, §3

AMPK-α1 = AMPK-α1 RT-PCR in insulin resistance conditions (TNF-α); assay type: cell-based; conditions: reduced by TNF-α treatment, peptide treatment 16 hours
Protocol: as §1, §2, §3

[4] = 0 min, oral 2 mg/ml 300 ul, Table 5
[5] = 30 min, oral 2 mg/ml 300 ul, Table 5
[6] = 60 min, oral 2 mg/ml 300 ul, Table 5
[7] = 90 min, oral 2 mg/ml 300 ul, Table 5
[8] = 120 min, oral 2 mg/ml 300 ul, Table 5
[9] = 0 min, IP 2 mg/ml 300 ul, Table 6
[10] = 0 min, oral 2 mg/ml 300 ul, Table 6
[11] = 10 min, IP 2 mg/ml 300 ul, Table 6
[12] = 10 min, oral 2 mg/ml 300 ul, Table 6
[13] = 40 min, IP 2 mg/ml 300 ul, Table 6
[14] = 40 min, oral 2 mg/ml 300 ul, Table 6
[15] = 80 min, IP 2 mg/ml 300 ul, Table 6
[16] = 80 min, oral 2 mg/ml 300 ul, Table 6
[17] = 140 min, IP 2 mg/ml 300 ul, Table 6
[18] = 140 min, oral 2 mg/ml 300 ul, Table 6
[19] = 200 min, IP 2 mg/ml 300 ul, Table 6
[20] = 200 min, oral 2 mg/ml 300 ul, Table 6

Substance: Lys-Glu-Arg-Lys-Ser (KERKS) [SEQ ID NO: 1]
- degree of lipid accumulation in the cells (3T3-L1 cells): reduced
- secretion of glycerol (mouse adipose tissue [1]): increased
- expression of the lipolysis factor CGI-58 (CGI-58): increased
- lipid area (mouse adipose tissue [2]): reduced
- number of adipocytes (mouse adipose tissue [2]): increased
- expression of hormone sensitive lipase (pHSL) (pHSL): increased
- blood glucose, Mean [3, 4]: 134.67
- blood glucose, individual animal [3, 4]: 145.00 and 165.00
- blood glucose, Mean [3, 5]: 163.67
- blood glucose, individual animal [3, 5]: 203.00 and 190.00
- blood glucose, Mean [3, 6]: 142.00
- blood glucose, individual animal [3, 6]: 162.00 and 195.00
- blood glucose, Mean [3, 7]: 142.67
- blood glucose, individual animal [3, 7]: 170.00 and 158.00
- blood glucose, Mean [3, 8]: 125.67
- blood glucose, individual animal [3, 8]: 130.00 and 115.00
- blood glucose increase by glucose [3]: reduced
- expression of adiponectin (adiponectin): again increased
- expression of the glucose transporter GLUT4 (GLUT4): again increased
- expression of the insulin receptor signaling protein IRS-1 (IRS-1): again increased
- expression of AMPK-α1 (AMPK-α1): again increased

Substance: His-Glu-Thr-Phe-Glu (HETFE) [SEQ ID NO: 2]
- degree of lipid accumulation in the cells (3T3-L1 cells): reduced
- increase of secretion of glycerol (mouse adipose tissue [1]; high-concentration peptide treatment): 22%
- secretion of glycerol (mouse adipose tissue [1]): increased
- expression of the lipolysis factor CGI-58 (CGI-58): increased
- expression of hormone sensitive lipase (pHSL) (pHSL): increased
- blood glucose, Mean [3, 9]: 155.00
- blood glucose, individual animal [3, 9]: 145.00 and 165.00
- blood glucose, Mean [3, 10]: 162
- blood glucose, individual animal [3, 10]: 159.00 and 165.00
- blood glucose, Mean [3, 11]: 197.00
- blood glucose, individual animal [3, 11]: 203.00 and 190.00
- blood glucose, Mean [3, 12]: 191
- blood glucose, individual animal [3, 12]: 188.00 and 193.00
- blood glucose, Mean [3, 13]: 179.00
- blood glucose, individual animal [3, 13]: 162.00 and 195.00
- blood glucose, Mean [3, 14]: 161
- blood glucose, individual animal [3, 14]: 164.00 and 157.00
- blood glucose, Mean [3, 15]: 164.00
- blood glucose, individual animal [3, 15]: 170.00 and 158.00
- blood glucose, Mean [3, 16]: 155
- blood glucose, individual animal [3, 16]: 163.00 and 147.00
- blood glucose, Mean [3, 17]: 123.00
- blood glucose, individual animal [3, 17]: 130.00 and 115.00
- blood glucose, Mean [3, 18]: 129
- blood glucose, individual animal [3, 18]: 122.00 and 135.00
- blood glucose, Mean [3, 19]: 112.00
- blood glucose, individual animal [3, 19]: 129.00 and 94.00
- blood glucose, Mean [3, 20]: 122
- blood glucose, individual animal [3, 20]: 118.00 and 126.00
- blood glucose increase by glucose [3]: reduced
- expression of adiponectin (adiponectin): again increased
- expression of the glucose transporter GLUT4 (GLUT4): again increased
- expression of AMPK-α1 (AMPK-α1): again increased
